One experiment has as its target T1, Human µ-opioid receptor (Homo sapiens, UniProt P35372).
T1 construct: expressed in transfected cells; host or cells: CHO-K1
Briefly: Human µ-opioid receptor radioligand assay ([3H]-DAMGO). Type of experiment: binding. As for the experimental part:
Human µ-opioid receptor radioligand assay
Transfected CHO-K1 cell membranes (20 µg) were incubated with [^3H]-DAMGO (1 nM) in assay buffer containing Tris-HCl 50 mM, MgCl2 5 mM at pH 7.4. NBS (non-specific binding) was measured by adding 10 µM Naloxone. The binding of the test compound was measured at either one concentration (% inhibition at 1 or 10 µM) or five different concentrations to determine affinity values (Ki). Plates were incubated at 27 °C for 60 min. After the incubation period, the reaction mixture was then transferred to MultiScreen HTS, FC plates (Millipore), filtered and plates were washed 3 times with ice-cold 10 mM Tris-HCl (pH 7.4). Filters were dried and counted at approximately 40% efficiency in a MicroBeta scintillation counter (Perkin-Elmer) using EcoScint liquid scintillation cocktail.

For experiment [1], the target named is Human α2δ-1 subunit of Cav2.2 calcium channel (Homo sapiens, UniProt P54289). Briefly: Human α2δ-1 subunit of Cav2.2 calcium channel assay ([3H]-Gabapentin binding). As for the experimental part: Human α2δ-1 subunit of Cav2.2 calcium channel assay
Human α2δ-1 enriched membranes (2.5 µg) were incubated with 15 nM of radiolabeled [3H]-Gabapentin in assay buffer containing Hepes-KOH 10mM, pH 7.4. NSB (non specific binding) was measured by adding 10 µM pregabalin. The binding of the test compound was measured at either one concentration (% inhibition at 1 or 10 µM) or five different concentrations to determine affinity values (Ki). After 60 min incubation at 27 °C, binding reaction was terminated by filtering through Multiscreen GF/C (Millipore) presoaked in 0.5 % polyethyleneimine in Vacuum Manifold Station, followed by 3 washes with ice-cold filtration buffer containing 50 mM Tris-HCl, pH 7.4. Filter plates were dried at 60 °C for 1 hour and 30 µl of scintillation cocktail were added to each well before radioactivity reading. Readings were performed in a Trilux 1450 Microbeta radioactive counter (Perkin Elmer).

Where [2] appears, read: transfected CHO-K1 cell membranes, [3H]-DAMGO 1 nM, read-out: µ-binding.
[3] abbreviates: human α2δ-1 enriched membranes, [3H]-Gabapentin 15 nM, read-out: α2δ-1 binding.

pKi: −log10 of the molar value. Where two headings read alike, the source gives them in different places.

T1 sequence (P35372 whole entry): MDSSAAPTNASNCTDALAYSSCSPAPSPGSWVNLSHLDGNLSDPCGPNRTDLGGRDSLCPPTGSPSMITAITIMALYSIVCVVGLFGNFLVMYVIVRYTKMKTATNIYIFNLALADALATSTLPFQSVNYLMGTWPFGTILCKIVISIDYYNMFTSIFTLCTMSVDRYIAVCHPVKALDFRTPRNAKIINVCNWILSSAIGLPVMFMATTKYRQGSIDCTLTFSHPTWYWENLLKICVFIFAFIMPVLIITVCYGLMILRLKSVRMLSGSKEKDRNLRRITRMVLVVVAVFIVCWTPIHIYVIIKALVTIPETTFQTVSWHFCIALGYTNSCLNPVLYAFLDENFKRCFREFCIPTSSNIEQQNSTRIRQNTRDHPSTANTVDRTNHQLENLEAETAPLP
Chain of Human α2δ-1 subunit of Cav2.2 calcium channel (P54289 25-1103): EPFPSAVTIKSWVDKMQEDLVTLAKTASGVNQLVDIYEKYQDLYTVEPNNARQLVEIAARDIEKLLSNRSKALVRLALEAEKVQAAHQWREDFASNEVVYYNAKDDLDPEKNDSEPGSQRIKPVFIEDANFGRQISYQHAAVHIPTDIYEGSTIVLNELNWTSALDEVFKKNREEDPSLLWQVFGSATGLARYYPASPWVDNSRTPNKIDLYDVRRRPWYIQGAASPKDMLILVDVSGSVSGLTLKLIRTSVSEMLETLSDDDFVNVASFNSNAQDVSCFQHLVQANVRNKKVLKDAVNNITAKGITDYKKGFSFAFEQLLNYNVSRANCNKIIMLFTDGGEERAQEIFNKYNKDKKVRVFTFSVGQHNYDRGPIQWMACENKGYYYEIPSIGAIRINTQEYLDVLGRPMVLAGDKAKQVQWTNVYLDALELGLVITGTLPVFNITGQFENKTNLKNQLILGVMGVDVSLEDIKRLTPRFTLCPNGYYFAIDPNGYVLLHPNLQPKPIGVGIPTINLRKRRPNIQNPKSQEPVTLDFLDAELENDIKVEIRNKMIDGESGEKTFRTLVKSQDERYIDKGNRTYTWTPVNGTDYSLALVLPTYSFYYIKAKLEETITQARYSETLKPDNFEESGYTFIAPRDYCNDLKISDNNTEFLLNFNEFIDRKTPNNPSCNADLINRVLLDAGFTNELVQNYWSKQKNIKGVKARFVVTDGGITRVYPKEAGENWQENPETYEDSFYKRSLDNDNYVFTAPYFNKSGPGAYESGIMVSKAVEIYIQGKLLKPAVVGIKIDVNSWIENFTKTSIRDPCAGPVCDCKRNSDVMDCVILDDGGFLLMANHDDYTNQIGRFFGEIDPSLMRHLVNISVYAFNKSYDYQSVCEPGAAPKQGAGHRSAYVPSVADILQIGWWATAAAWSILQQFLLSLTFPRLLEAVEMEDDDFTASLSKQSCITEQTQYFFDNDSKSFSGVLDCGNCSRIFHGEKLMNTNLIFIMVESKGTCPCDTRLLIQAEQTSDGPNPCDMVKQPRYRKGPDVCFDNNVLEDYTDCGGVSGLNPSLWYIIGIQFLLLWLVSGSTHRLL

As for `CCCC(c1ccc2cc(N3CCC(c4cccc(O)c4)(N(C)C)CC3)ccc2c1)N1C[C@@H](C)N[C@@H](C)C1` (stereo partly drawn) [Example 1, 3-(4-(Dimethylamino)-1-(6-(1-((3S,5R)-3,5-dimethylpiperazin-1-yl)butyl)naphthalen-2-yl)piperidin-4-yl)phenol], the figures for the pKi (on Human µ-opioid receptor (setting [2]); in experiment [1]) were above 7.00 and below 5.30, respectively.

Take `CCCC(c1cnc2cc(N3CCC(c4cccc(O)c4)(N(C)C)CC3)ccc2c1)N1C[C@@H](C)N[C@@H](C)C1` (stereo partly drawn) [Example 2, 3-(4-(Dimethylamino)-1-(3-(1-((3S,5R)-3,5-dimethylpiperazin-1-yl)butyl)quinolin-7-yl)piperidin-4-yl)phenol]: the pKi on Human µ-opioid receptor is above 7.00; in experiment [1] (setting [3]) it was 5.30 to 6.30.

For `CCCC(c1ccc2cc(N3CCC(c4cccc(O)c4)(N(C)C)CC3)ccc2n1)N1C[C@@H](C)N[C@@H](C)C1` (stereo partly drawn) [Example 3, 3-(4-(Dimethylamino)-1-(2-(1-((3S,5R)-3,5-dimethylpiperazin-1-yl)butyl)quinolin-6-yl)piperidin-4-yl)phenol], the pKi at Human µ-opioid receptor is above 7.00; in experiment [1] (setting [3]), 5.30 to 6.30.

As for `CCC[C@H](c1cnc2cc(N3CCC(c4cccc(O)c4)(N(C)C)CC3)ccc2c1)N1C[C@@H](C)N[C@@H](C)C1` [Example 4, 3-(4-(Dimethylamino)-1-(3-((R)-1-((3S,5R)-3,5-dimethylpiperazin-1-yl)butyl)quinolin-7-yl)piperidin-4-yl)phenol], the pKi on Human µ-opioid receptor was above 7.00; in experiment [1] (setting [3]), 5.30 to 6.30.

Turning to `CCC[C@@H](c1cnc2cc(N3CCC(c4cccc(O)c4)(N(C)C)CC3)ccc2c1)N1C[C@@H](C)N[C@@H](C)C1` [Example 5, 3-(4-(Dimethylamino)-1-(3-((S)-1-((3S,5R)-3,5-dimethylpiperazin-1-yl)butyl)quinolin-7-yl)piperidin-4-yl)phenol], the pKi was above 7.00 at Human µ-opioid receptor and below 5.30 in experiment [1] (setting [3]).

Take `CCCC(c1cnc2cc(CN3CCC(c4cccc(O)c4)(N(C)C)CC3)ccc2c1)N1C[C@@H](C)N[C@@H](C)C1` (stereo partly drawn) [Example 6, 3-(4-(Dimethylamino)-1-((3-(1-((3S,5R)-3,5-dimethylpiperazin-1-yl)butyl)quinolin-7-yl)methyl)piperidin-4-yl)phenol]: the pKi at Human µ-opioid receptor (setting [2]) was above 7.00; in experiment [1], above 6.30.

For `CCCC(c1ccc2cc(CN3CCC(c4cccc(O)c4)(N(C)C)CC3)ccc2n1)N1C[C@@H](C)N[C@@H](C)C1` (stereo partly drawn) [Example 7, 3-(4-(Dimethylamino)-1-((2-(1-((3S,5R)-3,5-dimethylpiperazin-1-yl)butyl)quinolin-6-yl)methyl)piperidin-4-yl)phenol], the pKi was above 7.00 on Human µ-opioid receptor (setting [2]) and above 6.30 in experiment [1].

On to `CCC[C@H](c1cnc2cc(CN3CCC(c4cccc(O)c4)(N(C)C)CC3)ccc2c1)N1C[C@@H](C)N[C@@H](C)C1` [Example 8, 3-(4-(Dimethylamino)-1-((3-((R)-1-((3S,5R)-3,5-dimethylpiperazin-1-yl)butyl)quinolin-7-yl)methyl)piperidin-4-yl)phenol], for which the pKi at Human µ-opioid receptor (setting [2]) is above 7.00; in experiment [1], above 6.30.

In the case of `CCC[C@@H](c1cnc2cc(CN3CCC(c4cccc(O)c4)(N(C)C)CC3)ccc2c1)N1C[C@@H](C)N[C@@H](C)C1` [Example 9, 3-(4-(Dimethylamino)-1-((3-((S)-1-((3S,5R)-3,5-dimethylpiperazin-1-yl)butyl)quinolin-7-yl)methyl)piperidin-4-yl)phenol], the pKi at Human µ-opioid receptor is above 7.00; in experiment [1] (setting [3]) it was 5.30 to 6.30.

For `CCC[C@H](c1ccc2cc(CN3CCC(c4cccc(O)c4)(N(C)C)CC3)ccc2n1)N1C[C@@H](C)N[C@@H](C)C1` [Example 10, 3-(4-(Dimethylamino)-1-((2-((R)-1-((3S,5R)-3,5-dimethylpiperazin-1-yl)butyl)quinolin-6-yl)methyl)piperidin-4-yl)phenol], the pKi is above 7.00 at Human µ-opioid receptor (setting [2]) and above 6.30 in experiment [1].

On to `CCC[C@@H](c1ccc2cc(CN3CCC(c4cccc(O)c4)(N(C)C)CC3)ccc2n1)N1C[C@@H](C)N[C@@H](C)C1` [Example 11, 3-(4-(Dimethylamino)-1-((2-((S)-1-((3S,5R)-3,5-dimethylpiperazin-1-yl)butyl)quinolin-6-yl)methyl)piperidin-4-yl)phenol], for which the pKi on Human µ-opioid receptor was above 7.00; in experiment [1] (setting [3]) it was 5.30 to 6.30.

As to `CCC[C@H](c1cnc2cc(CN3CCC(c4ccccc4)(N(C)C)CC3)ccc2c1)N1C[C@@H](C)N[C@@H](C)C1` [Example 12, 1-((3-((R)-1-((3S,5R)-3,5-Dimethylpiperazin-1-yl)butyl)quinolin-7-yl)methyl)-N,N-dimethyl-4-phenylpiperidin-4-amine], the pKi is 6.30 to 7.00 at Human µ-opioid receptor (setting [2]) and above 6.30 in experiment [1].

For the compound `CCC[C@@H](c1cnc2cc(CN3CCC(c4ccccc4)(N(C)C)CC3)ccc2c1)N1C[C@@H](C)N[C@@H](C)C1` [Example 13, 1-((3-((S)-1-((3S,5R)-3,5-Dimethylpiperazin-1-yl)butyl)quinolin-7-yl)methyl)-N,N-dimethyl-4-phenylpiperidin-4-amine], the results for the pKi (at Human µ-opioid receptor; in experiment [1] (setting [3])) were 6.30 to 7.00 and below 5.30, respectively.

Take `CCCC(c1cnc2ccc(N3CCC(c4cccc(O)c4)(N(C)C)CC3)cc2c1)N1C[C@@H](C)N[C@@H](C)C1` (stereo partly drawn) [Example 14, 3-(4-(Dimethylamino)-1-(3-(1-((3S,5R)-3,5-dimethylpiperazin-1-yl)butyl)quinolin-6-yl)piperidin-4-yl)phenol]: the pKi at Human µ-opioid receptor (setting [2]) was below 6.30; in experiment [1], above 6.30.

Turning to `CCCC(c1cnc2ccc(CN3CCC(c4cccc(O)c4)(N(C)C)CC3)cc2c1)N1C[C@@H](C)N[C@@H](C)C1` (stereo partly drawn) [Example 15, 3-(4-(Dimethylamino)-1-((3-(1-((3S,5R)-3,5-dimethylpiperazin-1-yl)butyl)quinolin-6-yl)methyl)piperidin-4-yl)phenol], the pKi at Human µ-opioid receptor (setting [2]) was above 7.00; in experiment [1] it was above 6.30.

With `CCC[C@H](c1cnc2ccc(CN3CCC(c4cccc(O)c4)(N(C)C)CC3)cc2c1)N1C[C@@H](C)N[C@@H](C)C1` [Example 16, 3-(4-(Dimethylamino)-1-((3-((R)-1-((3S,5R)-3,5-dimethylpiperazin-1-yl)butyl)quinolin-6-yl)methyl)piperidin-4-yl)phenol], the pKi was above 7.00 at Human µ-opioid receptor (setting [2]) and above 6.30 in experiment [1].

`CCC[C@@H](c1cnc2ccc(CN3CCC(c4cccc(O)c4)(N(C)C)CC3)cc2c1)N1C[C@@H](C)N[C@@H](C)C1` [Example 17, 3-(4-(Dimethylamino)-1-((3-((S)-1-((3S,5R)-3,5-dimethylpiperazin-1-yl)butyl)quinolin-6-yl)methyl)piperidin-4-yl)phenol]: the pKi at Human µ-opioid receptor was above 7.00; in experiment [1] (setting [3]) it was below 5.30.

As to `CCC[C@H](c1cnc2ccc(CN3CCC(c4ccccc4)(N(C)C)CC3)cc2c1)N1C[C@@H](C)N[C@@H](C)C1` [Example 18, 1-((3-((R)-1-((3S,5R)-3,5-Dimethylpiperazin-1-yl)butyl)quinolin-6-yl)methyl)-N,N-dimethyl-4-phenylpiperidin-4-amine], the pKi on Human µ-opioid receptor is 6.30 to 7.00; in experiment [1] (setting [3]) it was 5.30 to 6.30.

Take `CCC[C@@H](c1cnc2ccc(CN3CCC(c4ccccc4)(N(C)C)CC3)cc2c1)N1C[C@@H](C)N[C@@H](C)C1` [Example 19, 1-((3-((S)-1-((3S,5R)-3,5-Dimethylpiperazin-1-yl)butyl)quinolin-6-yl)methyl)-N,N-dimethyl-4-phenylpiperidin-4-amine]: the pKi at Human µ-opioid receptor is above 7.00; in experiment [1] (setting [3]) it was below 5.30.

Regarding `CCCC(c1cc2ccc(N3CCC(c4cccc(O)c4)(N(C)C)CC3)cc2nc1CC)N1C[C@@H](C)N[C@@H](C)C1` (stereo partly drawn) [Example 20, 3-(4-(Dimethylamino)-1-(3-(1-((3S,5R)-3,5-dimethylpiperazin-1-yl)butyl)-2-ethylquinolin-7-yl)piperidin-4-yl)phenol], the pKi was above 7.00 on Human µ-opioid receptor (setting [2]) and above 6.30 in experiment [1].

For the compound `CCCC(c1cc2ccc(CN3CCC(c4cccc(O)c4)(N(C)C)CC3)cc2nc1CC)N1C[C@@H](C)N[C@@H](C)C1` (stereo partly drawn) [Example 21, 3-(4-(Dimethylamino)-1-((3-(1-((3S,5R)-3,5-dimethylpiperazin-1-yl)butyl)-2-ethylquinolin-7-yl)methyl)piperidin-4-yl)phenol], the results for the pKi (at Human µ-opioid receptor (setting [2]); in experiment [1]) were above 7.00 and above 6.30, respectively.

Turning to `CCCC(c1cc2cc(CN3CCC(c4cccc(O)c4)(N(C)C)CC3)ccc2nc1CC)N1C[C@@H](C)N[C@@H](C)C1` (stereo partly drawn) [Example 22, 3-(4-(Dimethylamino)-1-((3-(1-((3S,5R)-3,5-dimethylpiperazin-1-yl)butyl)-2-ethylquinolin-6-yl)methyl)piperidin-4-yl)phenol], the pKi at Human µ-opioid receptor was above 7.00; in experiment [1] (setting [3]), 5.30 to 6.30.

As for `CCC[C@H](c1cc2ccc(CN3CCC(c4cccc(O)c4)(N(C)C)CC3)cc2nc1CC)N1C[C@@H](C)N[C@@H](C)C1` [Example 23, 3-(4-(Dimethylamino)-1-((3-((R)-1-((3S,5R)-3,5-dimethylpiperazin-1-yl)butyl)-2-ethylquinolin-7-yl)methyl)piperidin-4-yl)phenol], the pKi at Human µ-opioid receptor (setting [2]) was above 7.00; in experiment [1], above 6.30.

Values taken from patent EP3753932A1, “SUBSTITUTED BICYCLIC DERIVATIVES HAVING MULTIMODAL ACTIVITY AGAINST PAIN” (priority 2019, dated 2020).
